ChEMBL document CHEMBL4229420, “ROCK inhibitors 2. Improving potency, selectivity and solubility through the application of rationally designed solubilizing groups” (Bioorg Med Chem Lett, 2018)
Values after ≈ are worked out from the molar mass of the structure shown.

Assay: Solubility of the compound in pH 7.4 phosphate buffer
Assay type: physicochemical
[1] = phosphate buffer, read-out: solubility

| solubility [1] [µM] | solubility (buffer) [µM] | SMILES |
| --- | --- | --- |
| > 200 | – | O=C(Cc1cccc(OCCCN2CCCCC2)c1)Nc1nc(-c2ccncc2)cs1 |
| > 200 | – | O=C(Cc1cccc(OCCN2CCCCC2)c1)Nc1nc(-c2ccncc2)cs1 |
| > 200 | – | CN1CCN(CCOc2cccc(CC(=O)Nc3nc(-c4ccncc4)cs3)c2)CC1 |
| > 200 | – | CN1CCC(CCCOc2cccc(CC(=O)Nc3nc(-c4ccncc4)cs3)c2)CC1 |
| – | > 200 | CN1CCN(CCCOc2cccc(CC(=O)Nc3nc(-c4ccncc4)cs3)c2)CC1 |
| > 200 | – | O=C(Cc1cccc(OCCN2CCOCC2)c1)Nc1nc(-c2ccncc2)cs1 |
| > 200 | – | O=C(Cc1cccc(OCCN2CCNCC2)c1)Nc1nc(-c2ccncc2)cs1 |
| 22 (≈ 7.16 µg/mL) | – | COc1cccc(CC(=O)Nc2nc(-c3ccncc3)cs2)c1 |
| – | > 200 | O=C(Cc1cccc(OCCCC2CCNCC2)c1)Nc1nc(-c2ccncc2)cs1 |
| > 200 | – | O=C(Cc1cccc(OCCCN2CCOCC2)c1)Nc1nc(-c2ccncc2)cs1 |
| > 200 | – | O=C(Cc1cccc(OCCCN2CCNCC2)c1)Nc1nc(-c2ccncc2)cs1 |
